Measured values: patent publication US9708244B2, “Coloring material and method for producing the same” (DAI NIPPON PRINTING CO., LTD., priority 2012, dated 2017)

Legend:
Format in all cases: physicochemical
[1] = Evaluation of thermal decomposition temperature (TG-DTA); details: heating rate 5° C./min to 800° C., extrapolated temperature of TG curve peak
Description: As a reference, alumina was put in a quarts pan. Using horizontal differential thermogravimetric-differential thermal analyzer (TG-DTA) TG8120 (manufactured by Rigaku Corporation), they were measured at a heating rate of 5° C./min to 800° C. The extrapolated temperature of the peak of the thus-obtained TG curve was used as a decomposition point, and the temperature at the decomposition point was used as a thermal decomposition temperature. The thermal decomposition temperature can be used as an indicator of heat resistance.

[2] = Evaluation of weight reduction rate (TG-DTA, held at 230° C.); details: heated to 230° C. at 20° C./min, kept 60 minutes
Description: As a reference, alumina was put in a quarts pan. Using differential thermogravimetric analyzer (TG-DTA) TG8120 (manufactured by Rigaku Corporation), they were heated to 230° C. at a heating rate of 20° C./min. From the time when they reached 230° C., they were kept at the same temperature for 60 minutes and then measured for the weight reduction rate. The weight reduction rate is calculated by the following formula and can be used as an indicator of heat resistance. Weight reduction rate=(“weight before heating”−“weight after heating”)/“weight before heating”×100(%) <Evaluation of Dyeing Property> (1) Fabric Dyeing

[3] = Evaluation of color change in color materials (absorption spectrum in methanol); details: 10 mg in 100 mL methanol, diluted 20-fold, 1 cm cell, FIG. 1
Description: First, 10 mg of each of the color materials A and C obtained in Examples 1 and 3 was dissolved in 100 mL of methanol and diluted 20-fold, thereby obtaining a measurement solution. The absorption spectrum of the solution was measured by using a 1 cm quarts cell in spectrophotometer U-3500 manufactured by Hitachi, Ltd. Next, 10 mg of BB7 (monomer) was dissolved in 100 mL of methanol and diluted 20-fold, thereby obtaining a measurement solution as a control product. The absorption spectrum of the solution was measured by the same method as above.

Compound	Thermal decomposition temperature [1]	Weight reduction rate (230° C. for 1 hr) [2]	Color change versus BB7 (absorption spectrum peak form) [3]
CCN(CC)c1ccc(C(=C2C=CC(=[N+](CC)CC)C=C2)c2ccc(NCc3ccc(CNc4ccc(C(=C5C=CC(=[N+](CC)CC)C=C5)c5ccc(N(CC)CC)cc5)c5ccccc45)cc3)c3ccccc23)cc1.[Cl-].[Cl-] [Color material A]	247 °C	−28.9%	almost no change in color
CCN(CC)c1ccc(C(=C2C=CC(=[N+](CC)CC)C=C2)c2ccc(NCc3ccc(CNc4ccc(C(=C5C=CC(=[N+](CC)CC)C=C5)c5ccc(N(CC)CC)cc5)c5ccccc45)cc3)c3ccccc23)cc1 [Color material B]	255 °C	−29.1%	–
CCNc1ccc(C(=C2C=CC(=[N+](CC)CC)C=C2)c2ccc(N(CC)CC)cc2)c2ccccc12.[Cl-] [Color material D, Basic Blue 7 (CI-42595)]	218 °C	−40.2%	–
CCNc1ccc(C(=C2C=CC(=[N+](CC)CC)C=C2)c2ccc(N(CC)CC)cc2)c2ccccc12.Cc1ccc(S(=O)(=O)[O-])cc1 [Color material E]	245 °C	−38.3%	–
CCNc1ccc(C(=C2C=CC(=[N+](CC)CC)C=C2)c2ccc(N(CC)CC)cc2)c2ccccc12 [Color material F]	236 °C	−33.8%	–
